Paper PMC10467082, “Anti-Toxoplasma gondii Effects of Lipopeptide Derivatives of Lycosin-I” (Toxins, 2023)

What was measured:
Toxoplasma [1] = details: cited from earlier work
From the text: To evaluate the efficacy of the lipopeptides in vivo, we established a mouse model of acute T. gondii infection.

RH strain of T. gondii = type: in vivo, mouse; details: mouse, in vivo, ip, 4 mg/kg/day
Experimental: To evaluate the anti-T. gondii effect of lipopeptides in vivo, we established a mouse model acutely infected with the RH strain of T. gondii. Forty 8-week-old female BALB/c mice weighing 17–19 g were randomly divided into 5 groups (n = 8 per group) and intraperitoneally injected with 1 × 10^3 tachyzoites per mouse. Lycosin-I, L-C12, L-an and sulfadiazine (SDZ) were dissolved in PBS, respectively. As these peptides are small linear peptides that are easily degraded by pepsin; mice were treated with these peptides via intraperitoneal injection (the same way that the mice were infected with T. gondii) rather than oral gavage. After 4 h of infection, mice were traperitoneally injected with 4 mg/kg of Lycosin-I, L-C12, L-an and sulfadiazine solution (once a day) for 7 days. Mice in the negative control group were treated with PBS. Mice in this condition observed daily and the time of death was recorded. The experiment was approved by the Ethics Committee of the School of Basic Medicine of Central South University (approval number: 2021-KT24).

IFN-γ = type: in vivo, mouse; details: mouse, in vivo
Experimental: (§1) Once T. gondii has infected a host, a number of inflammatory responses can be induced in the host to resist T. gondii invasion and proliferation. Therefore, we wanted to investigate the expression levels of anti-inflammatory and pro-inflammatory factors in the mice treated with lipopeptides. The expression levels of IFN-γ, TNF-α, IL-4 and IL-10 in the spleen tissues of mice after 5 days of treatment were determined via qRT-PCR (Figure 5). […] Compared to the PBS group, all treatment groups promoted the upregulation of the pro-inflammatory cytokines IFN-γ and TNF-α and the anti-inflammatory cytokine IL-4.
(§2) Total RNA was extracted from each sample using Total RNA Isolation Kit (ENOVA BIO Co., Ltd., Wuhan, China), in accordance with the manufacturer’s instructions. Reverse transcription of RNA into cDNA was performed using the PerfectStart Uni RT&qPCR Kit (TransGen Biotech Co., Ltd., Beijing, China) in accordance with the instructions. cDNA was used as a template for qRT-PCR using PerfectStart Uni RT&qPCR Kit (TransGen Biotech Co., Ltd., Beijing, China). Primers, listed in Table 2, were designed and synthesized by a biotechnology company (Sangon Biotech Co., Ltd., Shanghai, China). Analysis was performed using the comparative threshold cycle method (2^−∆∆Ct). The gene expression levels of genes were normalized to those of housekeeping genes (β-actin or GAPDH).

IL-10 = type: in vivo, mouse; details: mouse, in vivo
Experimental: as §1, §2

IL-4 = type: in vivo, mouse; details: mouse, in vivo
Experimental: as §1, §2

TNF-α = type: in vivo, mouse; details: mouse, in vivo
Experimental: as §1, §2

T. gondii tachyzoites [2] = type: cell-based, Toxoplasma gondii
Experimental: The HFF cells were seeded in 6-well plates (1 × 10^6 cells per well) and incubated for 48–72 h. Cells in the 6-well plates were infected with 500 fresh tachyzoites per well for 2 h. The well in which cells were not infected with tachyzoites was considered the blank control group. Cells infected with tachyzoites were then treated with Lycosin-I (10 μM), L-C12 (10 μM), L-an (10 μM), SDZ (10 μM, positive control) and DMEM (negative control), respectively. After 7 days, HFFs in the plates were washed twice with PBS, fixed with methanol for 5 min, and then stained with crystal violet for 20 min. Six-well plates were washed with running water, dried, photographed, and then the number and area of plaques were counted using Photoshop version 2020. Three independent experiments were carried out.

Toxoplasma [3] = details: mouse; cited from earlier work
From the text: We established a mouse model acutely infected with tachyzoites, recorded the survival time of the mice and determined the parasite load in the tissues of the mice. Lycosin-I and L-an can effectively prolong the survival time of mice.

T. gondii tachyzoites [4] = details: mouse, in vivo
Experimental: Therefore, the mice were treated with 4 mg/kg/day of SDZ or lipopetides for 7 days, and the survival time of the mice was closely monitored for 15 days. […] We also determined the parasite load in the peritoneal fluid and tissues of mice acutely infected with T. gondii after 5 days of treatment. The number of tachyzoites in the peritoneal fluid of the mice was directly counted using a blood cell counting plate (Figure 4B), while the expression of the surface antigen SAG1, a membrane surface protein specific to tachyzoites, was detected via qRT-PCR in the heart, liver, spleen, lung and brain of the mice (Figure 4C–G).
as §2

## Nc1ccc(S(=O)(=O)Nc2ncccn2)cc1 [SDZ, Sulfadiazine]
Toxoplasma [1]
  anti-Toxoplasma effect in vitro: anti-Toxoplasma effect was also observed
RH strain of T. gondii
  survival time of mice compared to control group: could not prolong the survival time
IFN-γ
  expression of IFN-γ in spleen compared to PBS group: promoted the expression
IL-10
  expression of IL-10 in spleen compared to PBS group: inhibited the upregulation of IL-10
IL-4
  expression of IL-4 in spleen compared to PBS group: promoted IL-4 expression
TNF-α
  expression of TNF-α in spleen compared to PBS group: promoted the expression
T. gondii tachyzoites [2]
  number and area of plaques in contrast with DMEM group: significantly reduced
  plaques compared to DMEM group: no obvious plaque
Toxoplasma [3]
  anti-Toxoplasma effect in vivo: anti-Toxoplasma effect was also observed
T. gondii tachyzoites [4]
  parasite load in peritoneal fluid and tissues compared to PBS group: effectively inhibit the proliferation of tachyzoites in mice
